Experimental data reported in patent US7585895B2, “Therapeutic substituted cyclopentanes” (Allergan, Inc., priority 2005, dated 2009).

Biological target: T1, hEP1 (Homo sapiens, UniProt P34995)
T1 construct: expressed in transfected cells
T1 sequence (P34995 1-402): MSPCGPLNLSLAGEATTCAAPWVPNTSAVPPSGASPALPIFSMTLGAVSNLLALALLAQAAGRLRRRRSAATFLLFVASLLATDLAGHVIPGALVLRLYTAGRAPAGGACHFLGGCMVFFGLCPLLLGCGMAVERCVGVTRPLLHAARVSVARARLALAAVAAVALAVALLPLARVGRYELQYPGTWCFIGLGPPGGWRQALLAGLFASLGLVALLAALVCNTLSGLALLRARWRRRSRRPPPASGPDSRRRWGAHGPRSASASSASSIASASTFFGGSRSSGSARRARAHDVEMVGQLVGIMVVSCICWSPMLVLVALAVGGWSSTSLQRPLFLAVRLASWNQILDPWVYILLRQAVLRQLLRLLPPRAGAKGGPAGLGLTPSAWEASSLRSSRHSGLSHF
Assay: FLIPR calcium signal, EP1
Assay type: cell-based
Details: HEK-293(EBNA); for EC50: read-out: Ca2+ Signal-EC50 (nM) EP1
Description: HEK-293(EBNA) cells, stably expressing one type or subtype of recombinant human prostaglandin receptors (prostaglandin receptors expressed: hDP/Gqs5; hEP1; hEP2/Gqs5; hEP3A/Gqi5; hEP4/Gqs5; hFP; hIP; hTP), were cultured in 100 mm culture dishes in high-glucose DMEM medium containing 10% fetal bovine serum, 2 mM 1-glutamine, 250 μg/ml geneticin (G418) and 200 μg/ml hygromycin B as selection markers, and 100 units/ml penicillin G, 100 μg/ml streptomycin and 0.25 μg/ml amphotericin B.
Cells were seeded at a density of 5×10^4 cells per well in Biocoat® Poly-D-lysine-coated black-wall, clear-bottom 96-well plates (Becton-Dickinson) and allowed to attach overnight in an incubator at 37° C. Cells were then washed two times with HBSS-HEPES buffer (Hanks Balanced Salt Solution without bicarbonate and phenol red, 20 mM HEPES, pH 7.4) using a Denley Cellwash plate washer (Labsystems). After 45 minutes of dye-loading in the dark, using the calcium-sensitive dye Fluo-4 AM at a final concentration of 2 μM, plates were washed four times with HBSS-HEPES buffer to remove excess dye leaving 100 μl in each well. Plates were re-equilibrated to 37° C. for a few minutes.
Cells were excited with an Argon laser at 488 nm, and emission was measured through a 510-570 nm bandwidth emission filter (FLIPR™, Molecular Devices, Sunnyvale, Calif.). Drug solution was added in a 50 μl volume to each well to give the desired final concentration. The peak increase in fluorescence intensity was recorded for each well. On each plate, four wells each served as negative (HBSS-HEPES buffer) and positive controls (standard agonists: BW245C (hDP); PGE2 (HEP1; hEP2/Gqs5; hEP3A/Gqi5; hEP4/Gqs5); PGF2α (hFP); carbacyclin (hIP); U-46619 (hTP), depending on receptor). The peak fluorescence change in each drug-containing well was then expressed relative to the controls.
Compounds were tested in a high-throughput (HTS) or concentration-response (CoRe) format. In the HTS format, forty-four compounds per plate were examined in duplicates at a concentration of 10^−5 M. To generate concentration-response curves, four compounds per plate were tested in duplicates in a concentration range between 10^−5 and 10^−11 M. The duplicate values were averaged. In either, HTS or CoRe format each compound was tested on at least 3 separate plates using cells from different passages to give an n≧3.

SMILES | Ca2+ Signal-EC50 (nM) EP1 | EC50 [nM]
CCCCC(O)c1cccc([C@@H]2[C@@H](C/C=C\CCCC(=O)O)[C@H](Cl)C[C@H]2O)c1 (stereo partly drawn) [Entry 30, (Z)-7-{(1R,2S,3R,5R)-5-Chloro-3-hydroxy-2-[3-(1-hydroxy-pentyl)-phenyl]-cyclopentyl}-hept-5-enoic acid] | not active | –
CCCCCC(O)c1ccc([C@@H]2[C@@H](C/C=C\CCCC(=O)O)[C@@H](Cl)C[C@H]2O)cc1 (stereo partly drawn) [Entry 9, (Z)-7-{(1R,2S,3R,5S)-5-Chloro-3-hydroxy-2-[4-(1-hydroxy-hexyl)-phenyl]-cyclopentyl}-hept-5-enoic acid] | not active | –
CCCCCC(O)c1cccc([C@@H]2[C@@H](C/C=C\CCCC(=O)O)[C@H](Cl)C[C@H]2O)c1 (stereo partly drawn) [Entry 29, (Z)-7-{(1R,2S,3R,5R)-5-Chloro-3-hydroxy-2-[3-(1-hydroxy-hexyl)-phenyl]-cyclopentyl}-hept-5-enoic acid] | not active | –
CCCCCCc1ccc([C@@H]2[C@@H](C/C=C\CCCC(=O)O)[C@H](Cl)C[C@H]2O)cc1 [Entry 33, (Z)-7-[(1R,2S,3R,5R)-5-Chloro-2-(4-hexyl-phenyl)-3-hydroxy-cyclopentyl]-hept-5-enoic acid] | not active | –
CCCCCCC(O)c1ccc([C@@H]2[C@@H](C/C=C\CCCC(=O)O)[C@H](Cl)C[C@H]2O)cc1 (stereo partly drawn) [Entry 25, (Z)-7-{(1R,2S,3R,5R)-5-Chloro-3-hydroxy-2-[4-(1-hydroxy-heptyl)-phenyl]-cyclopentyl}-hept-5-enoic acid] | not active | –
CC(C)(C)CCCC(O)c1ccc([C@@H]2[C@@H](CCCCCCC(=O)O)[C@H](Cl)C[C@H]2O)cc1 (mixture of isomers) [Entry 20, 7-{(1R,2S,3R,5R)-5-Chloro-3-hydroxy-2-[4-(1-hydroxy-5,5-dimethyl-hexyl)-phenyl]-cyclopentyl}-heptanoic acid] | not active | –
O=C(O)CCCCCC[C@@H]1[C@@H](c2ccc(C(O)CCc3ccccc3)cc2)[C@H](O)C[C@H]1Cl (stereo partly drawn) [Entry 24, 7-{(1R,2S,3R,5R)-5-Chloro-3-hydroxy-2-[4-(1-hydroxy-3-phenyl-propyl)-phenyl]-cyclopentyl}-heptanoic acid] | – | 4520
O=C(O)CCC/C=C\C[C@@H]1[C@@H](c2ccc(C(O)c3ccccc3)cc2)[C@H](O)C[C@H]1Cl (stereo partly drawn) [Entry 28, (Z)-7-{(1R,2S,3R,5R)-5-Chloro-3-hydroxy-2-[4-(hydroxy-phenyl-methyl)-phenyl]-cyclopentyl}-hept-5-enoic acid] | not active | –
CCCCCC(O)c1ccc([C@@H]2[C@@H](C/C=C\CCCC(=O)O)[C@H](F)C[C@H]2O)cc1 (mixture of isomers) [Entry 8, (Z)-7-{(1R,2S,3R,5R)-5-Fluoro-3-hydroxy-2-[4-(1-hydroxy-hexyl)-phenyl]-cyclopentyl}-hept-5-enoic acid] | not active | –
CCCCCC(O)c1ccc([C@@H]2[C@@H](CCCc3ccc(C(=O)O)s3)[C@H](Cl)C[C@H]2O)cc1 (stereo partly drawn) [Entry 2, 5-(3-{(1R,2S,3R,5R)-5-Chloro-3-hydroxy-2-[4-(1-hydroxy-hexyl)-phenyl]-cyclopentyl}-propyl)-thiophene-2-carboxylic acid] | – | 664
CCCCCC(O)c1ccc([C@@H]2[C@@H](C/C=C\CCCC(=O)O)[C@H](Cl)C[C@H]2O)cc1 (single isomer, unassigned) [Entry 13] | not active | –
O=C(O)CCC/C=C\C[C@@H]1[C@@H](c2ccc(C(O)CC3CCCCC3)cc2)[C@H](O)C[C@H]1Cl (mixture of isomers) [Entry 17, (Z)-7-{(1R,2S,3R,5R)-5-Chloro-2-[4-(2-cyclohexyl-1-hydroxy-ethyl)-phenyl]-3-hydroxy-cyclopentyl}-hept-5-enoic acid] | not active | –
O=C(O)CCC/C=C\C[C@@H]1[C@@H](c2ccc(C(O)CCC3CCCCC3)cc2)[C@H](O)C[C@H]1Cl (stereo partly drawn) [Entry 15, (Z)-7-{(1R,2S,3R,5R)-5-Chloro-2-[4-(3-cyclohexyl-1-hydroxy-propyl)-phenyl]-3-hydroxy-cyclopentyl}-hept-5-enoic acid] | not active | –
O=C(O)CCCCCC[C@@H]1[C@@H](c2ccc(C(O)CC3CCCCC3)cc2)[C@H](O)C[C@H]1Cl (stereo partly drawn) [Entry 18, 7-{(1R,2S,3R,5R)-5-Chloro-2-[4-(2-cyclohexyl-1-hydroxy-ethyl)-phenyl]-3-hydroxy-cyclopentyl}-heptanoic acid] | not active | –
O=C(O)CCCCCC[C@@H]1[C@@H](c2ccc(C(O)Cc3ccccc3)cc2)[C@H](O)C[C@H]1Cl (stereo partly drawn) [Entry 22, 7-{(1 R,2S,3R,5R)-5-Chloro-3-hydroxy-2-[4-(1-hydroxy-2-phenyl-ethyl)-phenyl]-cyclopentyl}-heptanoic acid] | not active | –
CCCCCC(O)c1ccc([C@@H]2[C@@H](Cc3cccc(CCC(=O)O)c3)[C@H](Cl)C[C@H]2O)cc1 (stereo partly drawn) [Entry 3, 3-(3-{(1R,2S,3R,5R)-5-Chloro-3-hydroxy-2-[4-(1-hydroxy-hexyl)-phenyl]-cyclopentylmethyl}-phenyl)-propionic acid] | not active | –
CCCCCC(O)c1ccc([C@@H]2[C@@H](CCCCCCC(=O)O)[C@H](Cl)C[C@H]2O)cc1 (stereo partly drawn) [Entry 14, 7-{(1R,2S,3R,5R)-5-Chloro-3-hydroxy-2-[4-(1-hydroxy-hexyl)-phenyl]-cyclopentyl}-heptanoic acid] | not active | –
CCCC(O)c1ccc([C@@H]2[C@@H](C/C=C\CCCC(=O)O)[C@H](Cl)C[C@H]2O)cc1 (stereo partly drawn) [Entry 26, (Z)-7-{(1R,2S,3R,5R)-5-Chloro-3-hydroxy-2-[4-(1-hydroxy-butyl)-phenyl]-cyclopentyl}-hept-5-enoic acid] | not active | –
O=C(O)CCC/C=C\C[C@@H]1[C@@H](c2ccc(C(O)Cc3ccccc3)cc2)[C@H](O)C[C@H]1Cl (mixture of isomers) [Entry 21, (Z)-7-{(1R,2S,3R,5R)-5-Chloro-3-hydroxy-2-[4-(1-hydroxy-2-phenyl-ethyl)-phenyl]-cyclopentyl}-hept-5-enoic acid] | not active | –
O=C(O)CCC/C=C\C[C@@H]1[C@@H](c2ccc(C(O)CCc3ccccc3)cc2)[C@H](O)C[C@H]1Cl (stereo partly drawn) [Entry 23, (Z)-7-{(1R,2S,3R,5R)-5-Chloro-3-hydroxy-2-[4-(1-hydroxy-3-phenyl-propyl)-phenyl]-cyclopentyl}-hept-5-enoic acid] | not active | –
CCCCCC(O)c1ccc([C@@H]2[C@@H](CCCc3ncc(C(=O)O)s3)[C@H](Cl)C[C@H]2O)cc1 (stereo partly drawn) [Entry 5, 2-(3-{(1R,2S,3R,5R)-5-Chloro-3-hydroxy-2-[4-(1-hydroxy-hexyl)-phenyl]-cyclopentyl}-propyl)-thiazole-5-carboxylic acid] | not active | –
CCCCCC(O)c1ccc([C@@H]2[C@@H](C/C=C\CCCC(=O)O)[C@H](Cl)C[C@H]2O)cc1 (single isomer, unassigned) [Entry 12] | not active | –
CCCC1(C(O)c2cccc([C@@H]3[C@@H](Cc4cccc(CCC(=O)O)c4)[C@H](Cl)C[C@H]3O)c2)CCC1 (stereo partly drawn) [Entry 4, 3-[3-((1R,2S,3R,5R)-5-Chloro-3-hydroxy-2-{3-[hydroxy-(1-propyl-cyclobutyl)-methyl]-phenyl}-cyclopentylmethyl)-phenyl]-propionic acid] | not active | –
CCCCC(O)c1ccc([C@@H]2[C@@H](C/C=C\CCCC(=O)O)[C@H](Cl)C[C@H]2O)cc1 (mixture of isomers) [Entry 27, (Z)-7-{(1R,2S,3R,5R)-5-Chloro-3-hydroxy-2-[4-(1-hydroxy-pentyl)-phenyl]-cyclopentyl}-hept-5-enoic acid] | not active | –
